Measurements as given in patent US8921360B2, “Heterobicycle-substituted azolyl benzene fungicides” (priority 2009, dated 2014).

Experiments:
Assay type in all cases: in vivo
[1] = system: Alternaria solani; assay: Test G: tomato early blight, preventive spray on tomato seedlings; conditions: Alternaria solani, topical, 168 h, tomato seedlings sprayed to run-off, inoculated next day, rated after 48 h + 5 days, read-out: Percentage Disease Control Test G
Procedure, shortened: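 Tomato seedlings sprayed to run-off with compound at 200 ppm (≈800 g/ha) or 40 ppm where marked, in acetone/water with 250 ppm Trem 014. Plants inoculated with A. solani spores the next day, held 48 h saturated at 27 °C, then 5 days at 24 °C. Disease visually rated as % control relative to untreated plants.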

[2] = system: Botrytis cinerea; assay: Test F: tomato botrytis, preventive spray on tomato seedlings; conditions: Botrytis cinerea, topical, 120 h, tomato seedlings sprayed to run-off, inoculated next day, rated after 48 h + 3 days, read-out: Percentage Disease Control Test F
Procedure, shortened: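 Tomato seedlings sprayed to run-off with compound suspended in acetone/water (50/50) with 250 ppm Trem® 014, at 200 ppm (800 g/ha) or 40 ppm where marked, then inoculated next day with B. cinerea spores. Held 48 h saturated at 20° C, then 3 days at 27° C; disease control rated visually, 0–100 versus untreated controls.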

[3] = system: Septoria nodorum; assay: Test D: wheat glume blotch, preventive spray on wheat seedlings; conditions: Parastagonospora nodorum, 216 h, wheat seedlings sprayed to run-off, inoculated next day, rated after 48 h + 7 days, read-out: Percentage Disease Control Test D
Procedure, shortened: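 Compounds in acetone/water (50/50) with 250 ppm Trem 014 sprayed to run-off on wheat seedlings at 200 ppm (≈800 g/ha) or 40 ppm where marked. Spore inoculation next day, 48 h saturated atmosphere at 20 °C, then 7 days at 20 °C; visual rating as % disease control versus controls.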

[4] = system: Septoria tritici; assay: Test E: wheat leaf blotch, preventive spray on wheat seedlings; conditions: Zymoseptoria tritici, 456 h; 200 ppm; wheat seedlings sprayed to run-off, inoculated next day, rated after 48 h + 19 days; read-out: Percentage Disease Control Test E
Procedure, shortened: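 Wheat seedlings were sprayed to run-off with compound at 200 ppm (≈800 g/ha) or 40 ppm in acetone/water with surfactant. Spores were inoculated the next day, followed by 48 h saturated atmosphere at 24° C, then 19 days at 20° C. Disease control was visually rated 0–100 relative to controls.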

[5] = system: Erysiphe graminis f. sp. tritici; assay: Test A: wheat powdery mildew, preventive spray on wheat seedlings; conditions: Blumeria graminis, 192 h, wheat seedlings sprayed to run-off, inoculated next day, rated after 8 days, 100 = 100% disease control, 0 = no control, read-out: Percentage Disease Control Test A
Procedure, shortened: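 Wheat seedlings sprayed to run-off with compound suspended in acetone/water 50/50 plus 250 ppm Trem 014, at 200 ppm (equivalent to 800 g/ha) or 40 ppm where marked. Inoculated next day with Erysiphe graminis f. sp. tritici spore dust, held 8 days at 20° C. Disease visually rated as % control relative to untreated controls.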

Row | SMILES | pest or weed control at 200 ppm [1] [%] | pest or weed control at 200 ppm [2] [%] | pest or weed control at 200 ppm [3] [%] | pest or weed control at 200 ppm [4] [%] | pest or weed control at 200 ppm [5] [%]
1 | COC(=O)NCc1cc(-c2ccn(-c3ccc4c(c3)CC(O)CO4)n2)ccc1Cl (centres unmarked) [Compound 30, methyl N-[[2-chloro-5-[1-(3,4-dihydro-3-hydroxy-2H-1-benzopyran-6-yl)-1H-pyrazol-3-yl]phenyl]methyl]carbamate] | 94 | 0 | 99 | 78 | 98
2 | COC(=O)NCc1cc(-n2ccc(-c3ccc4c(c3)CCCO4)n2)ccc1F [Compound 11, methyl N-[[5-[3-(3,4-dihydro-2H-1-benzopyran-6-yl)-1H-pyrazol-1-yl]-2-fluorophenyl]methyl]carbamate] | 40 | 0 | 100 | 100 | 100
3 | O=CNCc1cc(-c2ccn(-c3ccc4c(c3)CCCO4)n2)ccc1Cl [Compound 3, N-[[2-chloro-5-[1-(3,4-dihydro-2H-1-benzopyran-6-yl)-1H-pyrazol-3-yl]-phenyl]methyl]formamide] | 0 | 0 | 99 | 78 | 0
4 | COC(=O)NCc1cc(-c2ccn(-c3ccc4c(c3)CC3(CO4)OCCO3)n2)ccc1Cl [Compound 28, methyl N-[[2-chloro-5-(1-spiro[2H-1-benzopyran-3(4H), 2′-[1,3]dioxolan]-6-yl-1H-pyrazol-3-yl)phenyl]methyl]carbamate] | 90 | 0 | 99 | 93 | 99
